Measurements from patent publication US20260125411A1, “COMPOUND EMITTING LIGHT UNDER SPECIFIC CONDITIONS, AND METHOD FOR DETECTING CANCER STEM CELLS USING SAME” (Kyoto University, priority 2022, published 2026).

How the values were obtained:
SUIT-2 cells = assay: Observation with confocal microscope, SUIT-2; format: cell-based, human; conditions: SUIT-2, FDG 20 μM, ex 488 nm, detection 500-600 nm
Description: (§1) Fluorescence imaging was performed using a confocal microscope LSM710 (Carl Zeiss AG). The excitation light used was at 488 nm (detection wavelength: 500-600 nm) and 633 nm (detection wavelength: 647-759 nm).
(§2) The cells were seeded in a 35 mm micro-Dish (μ-Dish 35 mm, high, ibidi, Germany) and cultured for 24 hours, followed by washing with DMEM (for SUIT-2 cells, NIH3T3 cells, HUVEC cells) or RPMI-1640 (for KATO-3 cells) containing no phenol red and no FBS. A dye and Aldefluor™ (StemCell Technologies, Inc., Canada) or FDG (Sigma-Aldrich, USA) were dissolved in DMSO and diluted in the medium. The cells were treated with 2 mL of the medium containing the dye and Aldefluor™ or FDG and cultured in air containing 5% CO2 at 37° C. for one hour, followed by observation with the confocal microscope. The number of cells seeded was 10×10^5 for KATO-3 cells, and 8×10^5 for the other cell types. The final concentrations of CHO_βgal, Aldefluor™, and FDG were 20 μM, 1 μM, and 20 μM, respectively. The DMSO content was 2%. FIG. 4 and FIG. 5 show the measurement results.

KATO-III cells = assay: Observation with confocal microscope, KATO-III; format: cell-based, human; conditions: FDG 20 μM, ex 488 nm, detection 500-600 nm
Description: as §1, §2

O=C1OC2(c3ccc(O[C@@H]4O[C@H](CO)[C@H](O)[C@H](O)[C@H]4O)cc3Oc3cc(O[C@@H]4O[C@H](CO)[C@H](O)[C@H](O)[C@H]4O)ccc32)c2ccccc21 [FDG, fluorescein di-β-D-galactopyranoside] was tested, and the emission in cells (SUIT-2 cells) was “emission was observed throughout the cells” and the emission in cells (KATO-III cells) was “emission was observed throughout the cells”.
